This note sets out measurements from patent publication US4514413A, “Gastric acid secretion inhibiting N-(imidazol-1-ylalkyl)thiourea derivatives” (BASF Aktiengesellschaft, priority 1982, dated 1985).

For assay [1], the target named is T1, histamine H2 receptor (Rattus norvegicus, UniProt P25102).
T1 construct: In male Sprague-Dawley rats (weight 210-310 g) which have been anesthetized with urethane; from tissue; host or cells: whole animal in vivo: anesthetized male Sprague-Dawley rats
The assay is described as follows: Inhibition of the dimaprit-induced lowering of the blood pressure (histamine H2 receptor-blocking action). It counts as in vivo, male Sprague-Dawley rats. As to conditions: for R.A. (relative activity), inhibition of the dimaprit-induced lowering of the blood pressure / inhibition of dimaprit-induced lowering of the blood pressure (in words): rat. The method, then: The substances tested were administered intravenously 5 minutes before the dimaprit injection. The ED 50% is determined as the dose which inhibits the dimaprit-induced lowering of the blood pressure by 50% (Table 1).

Assay [2] relates to secretion of gastric acid. The assay is described as follows: Inhibition of the gastric secretion in the rat (pH at the surface of the gastric mucous membrane). As to conditions: for R.A. (relative activity), inhibition of the gastric secretion: cimetidine = 1.00, subcutaneous administration; for ED 0.75 (dose which increases the pH by 0.75 on average compared with untreated control animals): subcutaneous administration, 1 hour pretreatment, 48 h fasted. The class given is in vivo, female Sprague-Dawley rats. The method, then: Inhibition of the secretion of gastric acid results in an increase in the pH of the gastric mucus membrane. This is investigated on groups of 5 conscious female Sprague-Dawley rats weighing 160-180 g. The animals receive no food for 48 hours (water ad libitum), and are pretreated subcutaneously with various doses of the test substances. […] The dose which increases the pH by 0.75 on average compared with untreated control animals is determined, as the ED 0.75, from the linear regression between the logarithms of the applied doses and the increase in the pH (Table 2).

Where [3] appears, read: cimetidine = 1.00, urethane anesthesia, intravenous administration.
Setting [4] is: urethane anesthesia, intravenous administration.

T1 sequence (P25102 whole entry): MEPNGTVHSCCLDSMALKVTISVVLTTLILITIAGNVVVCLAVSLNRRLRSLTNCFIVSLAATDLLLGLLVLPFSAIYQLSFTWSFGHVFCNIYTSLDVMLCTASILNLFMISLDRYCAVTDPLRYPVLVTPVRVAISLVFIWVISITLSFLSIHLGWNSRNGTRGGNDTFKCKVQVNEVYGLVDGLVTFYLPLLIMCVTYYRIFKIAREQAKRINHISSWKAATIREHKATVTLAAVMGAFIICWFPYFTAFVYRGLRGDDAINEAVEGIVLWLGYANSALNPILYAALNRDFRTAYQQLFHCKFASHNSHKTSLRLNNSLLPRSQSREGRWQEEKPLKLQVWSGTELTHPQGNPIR

Take `CN/C(=N/CCSCc1nc[nH]c1C)NC#N` [Cimetidine, reference compound]: in assay [1] (setting [3]), the “R.A. (relative activity), inhibition of the dimaprit-induced lowering of the blood pressure” value is listed as 1.00. Besides, in assay [1] (setting [4]), the “inhibition of dimaprit-induced lowering of the blood pressure (in words)” value is “specific and dose-dependent inhibition”. For the same compound, in assay [2], the “R.A. (relative activity), inhibition of the gastric secretion” value is on record as 1.00 and the ED 0.75 (dose which increases the pH by 0.75 on average compared with untreated control animals) was 0.45 mg/kg.

`Cc1nccn1CCCNC(=S)NCCSCc1ccc(CN(C)C)o1.O=C(O)C(=O)O.O=C(O)C(=O)O` [Example No. 1, N-[3-(2-methylimidazol-1-yl)-propyl]-N'-{2-[[5-(N,N-dimethylaminomethyl)-furan-2-yl]-methylthio]-ethyl}-thiourea dioxalate]: the “R.A. (relative activity), inhibition of the dimaprit-induced lowering of the blood pressure” value in assay [1] (in vivo, iv) was found to be 23.91. In addition, the “R.A. (relative activity), inhibition of the gastric secretion” value in assay [2] is reported as 8.65. In addition, the “ED 0.75 (dose which increases the pH by 0.75 on average compared with untreated control animals)” value in assay [2] (in mg/kg) came out at 0.052. In addition, in assay [2] (vs cimetidine, inhibition of gastric acid secretion, subcutaneous), the “times more effective than cimetidine” value was 8.7 times. For the same compound, the “times more effective than ranitidine” value in assay [2] (vs ranitidine, inhibition of gastric acid secretion, subcutaneous) stood at 1.7 times.

As to `CC(C)c1nccn1CCCNC(=S)NCCSCc1ccc(CN(C)C)o1` [Example No. 2, N-[3-(2-isopropylimidazol-1-yl)-propyl]-N'-{2-[[5-(N,N-dimethylaminomethyl)-furan-2-yl]-methylthio]-ethyl}-thiourea], in assay [1] (setting [3]), the “R.A. (relative activity), inhibition of the dimaprit-induced lowering of the blood pressure” value was 22.00.

Consider `CCc1nccn1CCCNC(=S)NCCSCc1ccc(CN(C)C)o1` [Example No. 3, N-[3-(2-ethylimidazol-1-yl)-propyl]-N'-{2-[[5-(N,N-dimethylaminomethyl)-furan-2-yl]-methylthio]-ethyl}-thiourea dioxalate], for which, in assay [1] (setting [3]), the “R.A. (relative activity), inhibition of the dimaprit-induced lowering of the blood pressure” value turned out to be 12.94.

For the compound `CCCc1nccn1CCCNC(=S)NCCSCc1ccc(CN(C)C)o1` [Example No. 4], the “R.A. (relative activity), inhibition of the dimaprit-induced lowering of the blood pressure” value in assay [1] (setting [3]) was 10.00.

As to `Cc1nc(C)n(CCCNC(=S)NCCSCc2ccc(CN(C)C)o2)c1C` [Example No. 8, N[3-(2,4,5-trimethylimidazol-1-yl)-propyl]-N'{2-[[5-(N,Ndimethylamino-methyl)-furan-2-yl]-methylthio]-ethyl}-thiourea], in assay [1] (setting [3]), the “R.A. (relative activity), inhibition of the dimaprit-induced lowering of the blood pressure” value is on record as 26.19.

Regarding `CCc1ncc(C)n1CCCNC(=S)NCCSCc1ccc(CN(C)C)o1` [Example No. 9], the “R.A. (relative activity), inhibition of the dimaprit-induced lowering of the blood pressure” value in assay [1] (setting [3]) was found to be 10.00.

Regarding `CNC(=C[N+](=O)[O-])NCCSCc1ccc(CN(C)C)o1` [Ranitidine, reference compound], the “R.A. (relative activity), inhibition of the dimaprit-induced lowering of the blood pressure” value in assay [1] (in vivo, iv) turned out to be 10.48. In addition, in assay [1] (setting [4]), the “inhibition of dimaprit-induced lowering of the blood pressure (in words)” value is “specific and dose-dependent inhibition”. In addition, the “R.A. (relative activity), inhibition of the gastric secretion” value in assay [2] is on record as 5.23. The “ED 0.75 (dose which increases the pH by 0.75 on average compared with untreated control animals)” value in assay [2] (in mg/kg) came out at 0.086.

Take `CN(C)CCCSC(=N)N` [dimaprit, S-[3-(N,N-dimethylamino)-propyl]-isothiourea, reference compound]: the “average lowering of the blood pressure” value in assay [1] (dimaprit 3.16 mg intravenously, initial pressures 100±1.1 mm Hg, N=70) is 27±0.7 mm Hg.
